Key:
[1] = test system: lambsquarter (Chenopodium album); experiment: Postemergence herbicidal activity; assay type: in vivo; conditions: Chenopodium album, post-emergence, 336 h, post-emergent, 140 g ai/ha, after 14 days; read-out: % Control CHEAL
Procedure, shortened: (§1)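 Compounds were applied postemergence by track sprayer delivering 187 L/ha, using a mixed organic/aqueous carrier containing crop oil concentrate and surfactant; solvent-blank sprays served as controls. Test plants were at the first to second true leaf stage after 7-21 days' greenhouse growth, were sub-irrigated after treatment, and were evaluated by probit analysis.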

[2] = test system: redroot pigweed (Amaranthus retroflexus); experiment: Postemergence herbicidal activity; assay type: in vivo; conditions: Amaranthus retroflexus, post-emergence, 336 h, post-emergent, 140 g ai/ha, after 14 days; read-out: % Control AMARE
Procedure, shortened: as §1

[3] = test system: velvetleaf (Abutilon theophrasti); experiment: Postemergence herbicidal activity; assay type: in vivo; conditions: Abutilon theophrasti, post-emergence, 336 h, post-emergent, 140 g ai/ha, after 14 days; read-out: % Control ABUTH
Procedure, shortened: as §1

[4] = test system: lambsquarter (Chenopodium album); experiment: Preemergence herbicidal activity; assay type: in vivo; conditions: Chenopodium album, pre-emergence, 480 h; pre-emergent, 140 g ai/ha, after 20-22 days; read-out: % Control CHEAL
Procedure, shortened: (§2)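 Seeds sown in 70:30 loam (pH about 8.1, about 1.5% organic matter) and sand mix, then sprayed preemergence at 187 L/ha with a track sprayer; controls received solvent blank. Pots kept in greenhouse, about 15 h photoperiod, about 23-29° C. day and 22-28° C. night, top-irrigated.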

[5] = test system: redroot pigweed (Amaranthus retroflexus); experiment: Preemergence herbicidal activity; assay type: in vivo; conditions: Amaranthus retroflexus, pre-emergence, 480 h; pre-emergent, 140 g ai/ha, after 20-22 days; read-out: % Control AMARE
Procedure, shortened: as §2

[6] = test system: velvetleaf (Abutilon theophrasti); experiment: Preemergence herbicidal activity; assay type: in vivo; conditions: Abutilon theophrasti, pre-emergence, 480 h; pre-emergent, 140 g ai/ha, after 20-22 days; read-out: % Control ABUTH
Procedure, shortened: as §2

Galium aparine = experiment: Postemergence herbicidal activity in cereal crops; assay type: in vivo; conditions: Galium aparine, post-emergence, 480 h, post-emergent, after 20-22 days, read-out: % Control GALAP; for pest or weed control at 70 g/ha: 70 g ai/ha
Method: (§3) When required to ensure good germination and healthy plants, a fungicide treatment and/or other chemical or physical treatment was applied. The plants were grown for 7-36 days in a greenhouse with an approximate 14 hour photoperiod which was maintained at about 18° C. during the day and 17° C. during the night. Nutrients and water were added on a regular basis and supplemental lighting was provided with overhead metal halide 1000-Watt lamps as necessary. The plants were employed for testing when they reached the second or third true leaf stage. […] The concentrated stock solutions obtained were diluted with 16 mL of an aqueous mixture containing acetone, water, isopropyl alcohol, DMSO, Agri-dex crop oil concentrate, and Triton® X-77 surfactant in a 64.7:26.0:6.7:2.0:0.7:0.01 v/v ratio to obtain spray solutions containing the highest application rates. […] Compound requirements are based upon a 12 mL application volume at a rate of 187 L/ha. Formulated compounds were applied to the plant material with an overhead Mandel track sprayer equipped with a […] nozzles calibrated to deliver 187 L/ha over an application area of 0.503 square meters at a spray height of 18 inches (43 cm) above average plant canopy height. Control plants were sprayed in the same manner with the blank. The treated plants and control plants were placed in a greenhouse as described above and watered by sub-irrigation to prevent wash-off of the test compounds.

Lamium purpureum = experiment: Postemergence herbicidal activity in cereal crops; assay type: in vivo; conditions: Lamium purpureum, post-emergence, 480 h, post-emergent, after 20-22 days, read-out: % Control LAMPU; for pest or weed control at 70 g/ha: 70 g ai/ha
Method: as §3

Papaver rhoeas = experiment: Postemergence herbicidal activity in cereal crops; assay type: in vivo; conditions: Papaver rhoeas, post-emergence, 480 h, post-emergent, after 20-22 days, read-out: % Control PAPRH; for pest or weed control at 70 g/ha: 70 g ai/ha
Method: as §3

Veronica persica = experiment: Postemergence herbicidal activity in cereal crops; assay type: in vivo; conditions: Veronica persica, post-emergence, 480 h, post-emergent, after 20-22 days, read-out: % Control VERPE; for pest or weed control at 70 g/ha: 70 g ai/ha
Method: as §3

barley (Hordeum vulare) = experiment: Postemergence herbicidal activity in cereal crops; assay type: in vivo; conditions: Hordeum, post-emergence, 480 h, crop, post-emergent, after 20-22 days, read-out: % Control HORVS; for pest or weed control at 70 g/ha: 70 g ai/ha
Method: as §3

[7] = test system: wheat (Triticum aestivum); experiment: Postemergence herbicidal activity in cereal crops; assay type: in vivo; conditions: Triticum aestivum, post-emergence, 480 h, crop, post-emergent, after 20-22 days, read-out: % Control TRZAS; for plant injury at 70 g/ha: 70 g ai/ha
Method: as §3

Cyperus difformis = experiment: Herbicidal activity in transplanted paddy rice; assay type: in vivo; conditions: Cyperus difformis, 504 h; paddy water application, 70 g ai/ha, after 3 weeks; read-out: % Control CYPDI
Method: (§4) Weed seeds or nutlets of the desired test plant species were planted in puddled soil (mud) prepared by mixing a non-sterilized mineral soil (28 percent silt, 18 percent clay, and 54 percent sand, with a pH of about 7.3 to 7.8 and an organic matter content of about 1.0 percent) and water at a ratio of 100 kg of soil to 19 L of water. The prepared mud was dispensed in 250 mL aliquots into 480 mL non-perforated plastic pots with a surface area of 91.6 square centimeters leaving a headspace of 3 centimeters in each pot. […] Seedlings at the second or third leaf stage of growth were transplanted into 650 mL of mud contained in 960 mL non-perforated plastic pots with a surface area of 91.6 square centimeters 4 days prior to herbicide application. The paddy was created by filling the 3 centimeter headspace of the pots with water. When required to ensure good germination and healthy plants, a fungicide treatment and/or other chemical or physical treatment was applied. The plants were grown for 4-14 days in a greenhouse with an approximate 14 hour photoperiod which was maintained at about 29° C. during the day and 26° C. during the night. Nutrients were added as Osmocote (17:6:10, N:P:K+minor nutrients) at 2 g per pot. Water was added on a regular basis to maintain the paddy flood, and supplemental lighting was provided with overhead metal halide 1000-Watt lamps as necessary. The plants were employed for testing when they reached the second or third true leaf stage. A weighed amount, determined by the highest rate to be tested, of each test compound was placed in a 120 mL glass vial and was dissolved in 20 mL of acetone to obtain concentrated stock solutions. […] Application rates of ½×, ¼×, ⅛× and 1/16× of the high rate were obtained by injecting an appropriate amount of the stock solution into the aqueous layer of the paddy. Control plants were treated in the same manner with the solvent blank. The treated plants and control plants were placed in a greenhouse as described above and water was added as needed to maintain a paddy flood.

Echinochloa crus-galli = experiment: Herbicidal activity in transplanted paddy rice; assay type: in vivo; conditions: Echinochloa crus-galli, 504 h; paddy water application, 70 g ai/ha, after 3 weeks; read-out: % Control ECHCG
Method: as §4

Monochoria vaginalis = experiment: Herbicidal activity in transplanted paddy rice; assay type: in vivo; conditions: Pontederia vaginalis, 504 h; paddy water application, 70 g ai/ha, after 3 weeks; read-out: % Control MOOVA
Method: as §4

Scirpus juncoides = experiment: Herbicidal activity in transplanted paddy rice; assay type: in vivo; conditions: Schoenoplectiella juncoides, 504 h; paddy water application, 70 g ai/ha, after 3 weeks; read-out: % Control SCPJU
Method: as §4

[8] = test system: rice (Orysa sativa var. Japonica); experiment: Herbicidal activity in transplanted paddy rice; assay type: in vivo; conditions: Oryza sativa, 504 h; transplant rice (crop), paddy water application, 70 g ai/ha, after 3 weeks
Method: as §4

Row | SMILES | pest or weed control at 140 g/ha [1] [%] | pest or weed control at 140 g/ha [2] [%] | pest or weed control at 140 g/ha [3] [%] | pest or weed control at 140 g/ha [4] [%] | pest or weed control at 140 g/ha [5] [%] | pest or weed control at 140 g/ha [6] [%] | melting point [°C] | pest or weed control at 70 g/ha (Galium aparine) [%] | pest or weed control at 70 g/ha (Lamium purpureum) [%] | pest or weed control at 70 g/ha (Papaver rhoeas) [%] | pest or weed control at 70 g/ha (Veronica persica) [%] | pest or weed control at 70 g/ha (barley (Hordeum vulare)) [%] | plant injury at 70 g/ha [7] [%] | pest or weed control at 70 g/ha (Cyperus difformis) [%] | pest or weed control at 70 g/ha (Echinochloa crus-galli) [%] | pest or weed control at 70 g/ha (Monochoria vaginalis) [%] | pest or weed control at 70 g/ha (Scirpus juncoides) [%] | pest or weed control at 70 g/ha [8] [%] | other results
1 | COC(=O)c1nc(-c2ccc(Cl)c(OC)c2F)c(F)c(N)c1Cl [Compound 14, 4-Amino-3-chloro-5-fluoro-6-(4-chloro-2-fluoro-3-methoxyphenyl)pyridine-2-carboxylic acid methyl ester] | 100 | 100 | 100 | 100 | 100 | 100 | 172 to 173 |  |  |  |  |  |  |  |  |  |  |  | pest or weed control at 35 g/ha (Galium aparine; 35 g ai/ha): 90%; pest or weed control at 35 g/ha (Lamium purpureum; 35 g ai/ha): 95%; pest or weed control at 35 g/ha (Papaver rhoeas; 35 g ai/ha): 95%; pest or weed control at 35 g/ha (Veronica persica; 35 g ai/ha): 65%; pest or weed control at 35 g/ha (barley (Hordeum vulare); 35 g ai/ha): 0%; plant injury at 35 g/ha ([7]; 35 g ai/ha): 0%
2 | COC(=O)c1nc(-c2ccc(Cl)c(N(C)C)c2F)cc(N)c1Cl [Compound 16, 4-Amino-3-chloro-6-(4-chloro-3-dimethylamino-2-fluorophenyl)pyridine-2-carboxylic acid, methyl ester] | 100 | 100 | 100 | 100 | 100 | 90 | 104 to 106 |  |  |  |  |  |  |  |  |  |  |  | pest or weed control at 17.5 g/ha (Galium aparine; 17.5 g ai/ha): 95%; pest or weed control at 17.5 g/ha (Lamium purpureum; 17.5 g ai/ha): 100%; pest or weed control at 17.5 g/ha (Papaver rhoeas; 17.5 g ai/ha): 95%; pest or weed control at 17.5 g/ha (Veronica persica; 17.5 g ai/ha): 95%; pest or weed control at 17.5 g/ha (barley (Hordeum vulare); 17.5 g ai/ha): 10%; plant injury at 17.5 g/ha ([7]; 17.5 g ai/ha): 10%
3 | COC(=O)c1nc(-c2cc(N(C)C)c(Cl)cc2F)cc(N)c1Cl [Compound 26, 4-amino-3-chloro-6-(4-chloro-5-dimethylamino-2-fluorophenyl)pyridine-2-carboxylic acid methyl ester] | 100 | 100 | 100 | 90 | 10 | 10 | 113 to 115 | 80 | 95 | 95 | 40 | 10 | 0 |  |  |  |  |  | 
4 | CCCCOC(=O)c1nc(-c2c(F)cc(Cl)c(OC)c2F)cc(N)c1Cl [Compound 88, 4-Amino-3-chloro-6-(4-chloro-2,6-difluoro-3-methoxyphenyl)pyridine-2-carboxylic acid, butyl ester] |  |  |  |  |  |  |  |  |  |  |  |  |  | 100 | 100 | 100 | 100 | 10 | 
5 | CCCCOC(=O)c1nc(-c2ccc(Cl)c(OC)c2Cl)cc(N)c1Cl [Compound 89, 4-Amino-3-chloro-6-(2,4-dichloro-3-methoxyphenyl)pyridine-2-carboxylic acid, butyl ester] |  |  |  |  |  |  |  |  |  |  |  |  |  | 100 | 85 | 100 | 90 | 0 | 
6 | COc1cc(-c2cc(N)c(Cl)c(C(=O)O)n2)c(F)cc1Cl [Compound 101, 4-Amino-3-chloro-6-(4-chloro-2-fluoro-5-methoxyphenyl)pyridine-2-carboxylic acid] | 100 | 100 | 100 | 100 | 100 | 100 |  | 60 | 99 | 100 | 60 | 5 | 10 |  |  |  |  |  | 
